From patent US4981842A, “Method of treating hormonal dependent mammary tumors in female mammals” (Roussel Uclaf, priority 1979, dated 1991)

Assays:
[1] = system: testicular steroidogenesis; test: Inhibitory activity against testicular steroidogenesis in men in good health, single intranasal dose; assay type: in vivo; settings: for seric level of testosterone/steroids on the fourth day after administration: fourth day (until 6th day)
Description: The inhibitory activity of [D Ser (tbu)^6 xdes Gly NH2^10 ]LH-RH ethylamide (described in German application Ser. No. 2,438,350) against testicular steroidogensis in men in good health was determined on men in good health aged 30 to 40 years. The said product was administered intranasally at a dose of 500 μg in a few drops of distilled water at 8 A.M. on the third day of the test. For 2 days prior to the treatment and for 6 days after the treatment, samples of blood were taken daily at 8 A.M., 3 P.M. and 10 P.M. On the day of administration of the LH-RH agonist, blood samples were taken at 11 A.M. and 6 P.M.
The seric concentrations of LH and FSH were measured by radioimmuno-logic dosages with double antibodies and the antiboides for measuring LH and FSH were furnished by the National Pituitary Agency of N.I.H. in Bethesda, Md. The seric concentrations of steroids was measured by radioimmuno-logic dosages in which one ml of serum was extracted with ether and the steroids were separated on a LH-20 column before measuring with radioimmuno-logic dosages. The radioimmuno-logic dosage results were determined by a program derived from model II of Rodbard et al [Second Karolinska Symposium on Research Methods in Reproductive Endroerinology, Diczfalusky Editer, Copenhague (1970), pp. 79-103]. The statistical significance was determined by the "multiple level test" of Duncan-Kramer [Kramer, Biometrics, vol. 12 (1956), p. 307]. The results are shown in the graphs on sheet 1 of the Figures filed herewith.

[2] = system: testicular steroidogenesis; test: Inhibitory activity on testicular steroidogenesis in a patient with prostate cancer; assay type: in vivo, human; settings: intranasal 500 μg twice a day
Text: The results are reported in the graphs of sheet 2 of the Figures.

[3] = system: ovarian steroidogenesis; test: Inhibitory activity on ovarian steroidogenesis in women; assay type: in vivo
Description: The inhibitory activity of [D Ser (tbu)^6 xdes Gly NH2^10 ]LH-RH ethylamide on ovarian steroidogenosis in women was determined on 6 women aged 26 to 35 years with normal and regular menstrual cycles and without prior endocrinal or gynecological problems. The study was conducted for 6 consecutive cycles consisting of 2 pretreatment cycles, 2 treatment cycles and 2 post-treatment cycles. Two drops of a solution containing 500 μg of [D Ser (tbu)^6 xdes Gly NH2^10 ] LH-RH ethylamide were deposited on each nostril at 8 A.M. and 5 P.M. of a day between the 4th and 9th day after the peak of LH-day 0. Daily blood samples were taken between 4 and 6 P.M. to measure seric levels of LH, FSH, progesterone and estradiol which were determined by radioimmuno-logictests with double antibodies. The antibodies to measure LH and FSH were furnished by the National Pituitory Agency of N.I.H. of Bethesda, Md.
Estradiol and progesterone were measured with highly specific antibodies developed against 7-(O-carboxymethyl)oxime of estradiol and 12-(O-carboxymethyl)-oxime of progesterone, respectively [3H] 17β-estradiol and ^125 I-progesterone -12-[O-carboxymethyl)-oxime]used as tracers. The serum was extracted with benzene and the steroids were separated with a LH-20 column before the determination. The radioimmunological results were exploited by the program derived from model II of Rodbard and Lewald as in Example 1 and the statistical significance was measured by the multiple level test of Ducan-Kramer of Example 1. The results are shown in the graphs of sheets 3 to 5 of the Figures.

[4] = system: prostate and seminal vesicules; test: Peptide in association with an antiandrogen: weight of prostate and seminal vesicles in rats; assay type: in vivo, rats of the Sprague-Dawley strain; settings: 14 days, 100 or 500 μg peptide s.c. plus 5 mg product A twice daily
Description: The effect of the administration of [D Ser (tbu)^6 des Gly NH2^10 ] LH-RH ethylamide in association with an antiandrogen was determined on groups of 9 normal rats of the Sprague-Dawley strain weighing about 250 g. The rats received for 14 days a subcutaneous administration at 9 A.M. of D Ser(Tbu)^6 of Gly^10 LH-RH ethylamide at a dose of 20, 100 or 500 μg in physiological serum and at 9 A.M. and 4 P.M. doses of 1 or 5 mg of 5,5-dimethyl-3-[4-nitro-3-trifluoromethyl-phenyl]-2,4-imidazolidinedione (product A) in solution in seasame oil containing 5% of benzyl alcohol. One group of rats received only physiological serum and one group received only product A.
The animals were killed 24 hours after the last injection and the weight of the prostate and seminal vesicules of the rats were determined.

[5] = intranasal 500 μg, 3rd day following administration
[6] = intranasal 500 μg at 8 A.M. and 5 P.M. of one day in luteal phase, typical subject (sheet 3)

With CCNC(=O)[C@@H]1CCCN1C(=O)[C@H](CCCNC(=N)N)NC(=O)[C@H](CC(C)C)NC(=O)[C@@H](COC(C)(C)C)NC(=O)[C@H](Cc1ccc(O)cc1)NC(=O)[C@H](CO)NC(=O)[C@H](Cc1c[nH]c2ccccc12)NC(=O)[C@H](Cc1c[nH]cn1)NC(=O)[C@@H]1CCC(=O)N1 [[D Ser (tbu)^6 xdes Gly NH2^10] LH-RH ethylamide] the “concentration of 17-OH-progesterone relative to initial control values” [1, 5] was 40%, the “concentration of testosterone relative to initial control values” [1, 5] was 50% and the “seric concentration of pregnenolone, 17-OH-pregnenolone, progesterone, 17-OH-progesterone, Δ5-androstene-3β,17β-diol and testosterone on the day of treatment” value ([1]; intranasal 500 μg, day of treatment) was “increased”. For the same molecule, the “plasmatic levels of LH and FSH” value ([1]; intranasal 500 μg, men) was “increase”, the “seric level of testosterone/steroids on the fourth day after administration” value ([1]; single intranasal dose 500 μg) was “returned to normal” and the “seric level of testosterone/steroids on the fourth day after administration” value ([1]; single intranasal dose 500 μg, listed as peptide) was “return to normal levels”. The “duration of the drop of seric levels of testicular steroids (testosterone and its precursors)” value ([1]; single intranasal dose 500 μg, human) was 3 days, the “diminution of the level of testosterone” value ([1]; single intranasal dose 500 μg, human, 3rd day following administration) was 50% and the “level of androgenic steroids (plasma)” value [2] was “diminution”. For the same molecule, the “level of testosterone (plasma)” value ([2]; two weeks of treatment) was “stabilized at a very low level”, the “reduction of the level of progesterone as compared to the controls” value ([3]; 12 cycles of treatment (sheet 5)) was 46% and the “progesterone level in cycles of post-treatment, pretreatment cycles as base of 100%” value ([3]; 12 cycles, 6 women) was 99%. For the same molecule, the “progesterone level in cycles of treatment, pretreatment cycles as base of 100%” value ([3]; 12 cycles, 6 women) was 46%, the “reduction of seric levels of progesterone compared to controls, first cycle of treatment” value [3, 6] was 13% and the “reduction of seric levels of progesterone compared to controls, second cycle of treatment” value [3, 6] was 34%. The “level of seric progesterone over the 2 cycles of treatment (sheet 4)” value ([3]; return to normal for the 2 cycles of post-treatment) was “accelerated diminution”, the “weight of the prostate” value [4] was “Similar, but a little less marked” and the “weight of the seminal vesicules” value [4] was “approached the weight of the seminal vesicules of castrated rats”.
